Tests used:
Type in all cases: in vivo
[1] = tested on: ducksalad (Heteranthera limosa); test: Test B flooded paddy test plant response
Method in brief: (§1)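 2-leaf plants; pots flooded 3 cm above soil; compound added to paddy water; depth maintained. Greenhouse 13–15 d. Visual rating vs controls, 0 (no effect) to 100 (complete control); dash = no result.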

rice (Oryza sativa) = test: Test B flooded paddy test plant response
Method in brief: as §1

[2] = tested on: umbrella sedge (Cyperus difformis); test: Test B flooded paddy test plant response
Method in brief: as §1

[3] = tested on: barnyardgrass (Echinochloa crus-galli); test: Test B flooded paddy test plant response
Method in brief: as §1

[4] = tested on: morningglory (Ipomoea coccinea); test: Test A pre-/postemergence plant response
Method in brief: (§2)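 Seeds were planted in blended loam soil and sand, then treated preemergence by directed soil spray. At that time, emerged plants (one- to two-leaf, 2–10 cm) received postemergence applications of the same surfactant-containing formulation. Injury was assessed visually on a 0–100 scale after approximately 10 days.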

[5] = tested on: barnyardgrass (Echinochloa crus-galli); test: Test A pre-/postemergence plant response
Method in brief: as §2

[6] = tested on: large crabgrass (Digitaria sanguinalis); test: Test A pre-/postemergence plant response
Method in brief: as §2

[7] = tested on: pigweed (Amaranthus retroflexus); test: Test A pre-/postemergence plant response
Method in brief: as §2

[8] = tested on: velvetleaf (Abutilon theophrasti); test: Test A pre-/postemergence plant response
Method in brief: as §2

[9] = tested on: wheat (Triticum aestivum); test: Test A pre-/postemergence plant response
Method in brief: as §2

corn (Zea mays) = test: Test A pre-/postemergence plant response
Method in brief: as §2

[10] = tested on: chickweed (Stellaria media); test: Test B postemergence plant response; conditions: for Plant response rating, Chickweed: Postemergence
Method in brief: (§3)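 Scoring: 0 means no effect and 100 complete control, judged by eye against controls after 13–15 days under greenhouse conditions following postemergence application at 2–18 cm plant height.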

[11] = tested on: windgrass (Apera spica-venti); test: Test B postemergence plant response; conditions: for Plant response rating, Windgrass: Postemergence
Method in brief: as §3

[12] = tested on: winter barley (Hordeum vulgare); test: Test B postemergence plant response; conditions: for Plant response rating, Barley: Postemergence
Method in brief: as §3

[13] = tested on: canarygrass (Phalaris minor); test: Test B postemergence plant response; conditions: for Plant response rating, Canarygrass: Postemergence
Method in brief: as §3

[14] = Flood (flooded paddy test), 62 g ai/ha, scale 0 to 100, 0 no effect, 100 complete control
[15] = Flood (flooded paddy test), 125 g ai/ha, scale 0 to 100, 0 no effect, 100 complete control
[16] = Flood (flooded paddy test), 250 g ai/ha, scale 0 to 100, 0 no effect, 100 complete control
[17] = Flood, 31 g ai/ha, scale 0 to 100
[18] = Postemergence, 125 g ai/ha, 0 to 100 scale, 0 no effect, 100 complete control
[19] = Postemergence, 500 g ai/ha, 0 to 100 scale, 0 no effect, 100 complete control
[20] = Preemergence, 125 g ai/ha, 0 to 100 scale (0 no effect, 100 complete control)
[21] = Preemergence, 500 g ai/ha, 0 to 100 scale (0 no effect, 100 complete control)
[22] = 31 g ai/ha, scale 0 to 100, 0 no effect, 100 complete control
[23] = Postemergence, 31 g ai/ha, 0 to 100 scale (0 no effect, 100 complete control)
[24] = Preemergence, 31 g ai/ha, 0 to 100 scale, 0 is no effect, 100 is complete control
[25] = 8 g ai/ha, postemergence, 0-100 scale
[26] = 62 g ai/ha, scale 0 to 100, 0 no effect, 100 complete control

Cc1cc(-c2ccc(Br)cc2)nn1-c1c(O)cnn(C)c1=O [Compound 4]
80: Plant response rating, Rice (rice (Oryza sativa); [16]) | Plant response rating, Wheat [9, 19] | Plant response rating, Canarygrass [13, 22]
70: Plant response rating, Rice (rice (Oryza sativa); [15]) | Plant response rating, Barnyardgrass [3, 15] | Plant response rating, Wheat [9, 20] | Plant response rating, Corn (corn (Zea mays); [20])
90: Plant response rating, Sedge, Umbrella [2, 15] | Plant response rating, Corn (corn (Zea mays); [18]) | Plant response rating, Corn (corn (Zea mays); [21]) | Plant response rating, Windgrass [11, 22] | Plant response rating, Barley ([12]; 125 g ai/ha, scale 0 to 100) | Plant response rating, Canarygrass ([13]; 62 g ai/ha, scale 0 to 100)
40: Plant response rating, Rice (rice (Oryza sativa); [14]) | Plant response rating, Sedge, Umbrella [2, 17]
85: Plant response rating, Ducksalad [1, 15] | Plant response rating, Ducksalad [1, 16]
20: Plant response rating, Morningglory [4, 19] | Plant response rating, Pigweed [7, 19] | Plant response rating, Velvetleaf [8, 18] | Plant response rating, Chickweed ([10]; 250 g ai/ha, scale 0 to 100)
0: Plant response rating, Ducksalad [1, 17] | Plant response rating, Barnyardgrass [3, 17] | Plant response rating, Morningglory [4, 18] | Plant response rating, Morningglory [4, 20] | Plant response rating, Morningglory [4, 21] | Plant response rating, Pigweed [7, 18] | Plant response rating, Pigweed [7, 20] | Plant response rating, Pigweed [7, 21] | Plant response rating, Velvetleaf [8, 20] | Plant response rating, Chickweed [10, 22] | Plant response rating, Chickweed ([10]; 62 g ai/ha, scale 0 to 100) | Plant response rating, Chickweed ([10]; 125 g ai/ha, scale 0 to 100) | Plant response rating, Barley [12, 22]
100: Plant response rating, Sedge, Umbrella [2, 16] | Plant response rating, Barnyardgrass [5, 18] | Plant response rating, Barnyardgrass [5, 19] | Plant response rating, Barnyardgrass [5, 20] | Plant response rating, Barnyardgrass [5, 21] | Plant response rating, Crabgrass, Large [6, 18] | Plant response rating, Crabgrass, Large [6, 19] | Plant response rating, Crabgrass, Large [6, 20] | Plant response rating, Crabgrass, Large [6, 21] | Plant response rating, Wheat [9, 21] | Plant response rating, Corn (corn (Zea mays); [19]) | Plant response rating, Windgrass ([11]; 62 g ai/ha, scale 0 to 100) | Plant response rating, Windgrass ([11]; 125 g ai/ha, scale 0 to 100) | Plant response rating, Windgrass ([11]; 250 g ai/ha, scale 0 to 100) | Plant response rating, Canarygrass ([13]; 125 g ai/ha, scale 0 to 100) | Plant response rating, Canarygrass ([13]; 250 g ai/ha, scale 0 to 100)
15: Plant response rating, Rice (rice (Oryza sativa); [17])
60: Plant response rating, Sedge, Umbrella [2, 14] | Plant response rating, Barnyardgrass [3, 14] | Plant response rating, Velvetleaf [8, 19] | Plant response rating, Wheat [9, 18]
10: Plant response rating, Velvetleaf [8, 21] | Plant response rating, Barley ([12]; 62 g ai/ha, scale 0 to 100)
75: Plant response rating, Ducksalad [1, 14] | Plant response rating, Barnyardgrass [3, 16]
95: Plant response rating, Barley ([12]; 250 g ai/ha, scale 0 to 100)

Cc1cc(-c2ccc(Cl)cc2)nn1-c1c(OC(=O)OCC(C)C)cnn(C)c1=O [Compound 57]
50: Plant response rating, Crabgrass, Large [6, 24] | Plant response rating, Wheat [9, 18] | Plant response rating, Corn (corn (Zea mays); [20]) | Windgrass plant response rating [11, 25] | Plant response rating, Windgrass ([11]; 16 g ai/ha, scale 0 to 100)
10: Plant response rating, Rice (rice (Oryza sativa); [15])
70: Plant response rating, Ducksalad [1, 16] | Plant response rating, Wheat [9, 20] | Plant response rating, Windgrass [11, 26]
80: Plant response rating, Sedge, Umbrella [2, 16] | Plant response rating, Barnyardgrass [5, 18] | Plant response rating, Crabgrass, Large [6, 18]
55: Plant response rating, Windgrass ([11]; 31 g ai/ha, scale 0 to 100)
45: Plant response rating, Sedge, Umbrella [2, 17]
60: Plant response rating, Barnyardgrass [5, 24] | Plant response rating, Corn (corn (Zea mays); [18]) | Plant response rating, Canarygrass [13, 26]
0: Plant response rating, Ducksalad [1, 14] | Plant response rating, Ducksalad [1, 15] | Plant response rating, Rice (rice (Oryza sativa); [14]) | Plant response rating, Rice (rice (Oryza sativa); [17]) | Plant response rating, Barnyardgrass [3, 14] | Plant response rating, Barnyardgrass [3, 15] | Plant response rating, Barnyardgrass [3, 16] | Plant response rating, Barnyardgrass [3, 17] | Plant response rating, Morningglory [4, 23] | Plant response rating, Morningglory [4, 18] | Plant response rating, Morningglory [4, 24] | Plant response rating, Morningglory [4, 20] | Plant response rating, Barnyardgrass [5, 23] | Plant response rating, Crabgrass, Large [6, 23] | Plant response rating, Pigweed [7, 23] | Plant response rating, Pigweed [7, 18] | Plant response rating, Pigweed [7, 24] | Plant response rating, Pigweed [7, 20] | Plant response rating, Velvetleaf [8, 23] | Plant response rating, Velvetleaf [8, 18] | Plant response rating, Velvetleaf [8, 24] | Plant response rating, Velvetleaf [8, 20] | Plant response rating, Wheat [9, 23] | Plant response rating, Wheat [9, 24] | Plant response rating, Corn (corn (Zea mays); [23]) | Plant response rating, Corn (corn (Zea mays); [24]) | Chickweed plant response rating [10, 25] | Plant response rating, Chickweed ([10]; 16 g ai/ha, scale 0 to 100) | Plant response rating, Chickweed ([10]; 31 g ai/ha, scale 0 to 100) | Plant response rating, Chickweed [10, 26] | Barley plant response rating [12, 25] | Plant response rating, Barley ([12]; 16 g ai/ha, scale 0 to 100, 0 no effect, 100 complete control) | Plant response rating, Barley [12, 22] | Canarygrass plant response rating [13, 25] | Plant response rating, Canarygrass ([13]; 16 g ai/ha, scale 0 to 100) | Plant response rating, Canarygrass ([13]; 31 g ai/ha, scale 0 to 100)
15: Plant response rating, Rice (rice (Oryza sativa); [16])
100: Plant response rating, Barnyardgrass [5, 20] | Plant response rating, Crabgrass, Large [6, 20]
75: Plant response rating, Sedge, Umbrella [2, 15]
65: Plant response rating, Sedge, Umbrella [2, 14]
40: Plant response rating, Barley [12, 26]
